The test system of assay [1] is NC/Nga mouse with induced allergic atopic dermatitis (house dust mite antigen). Briefly: Skin state and number of scratching (itching) in an animal model with allergic atopic dermatitis, extract applied on skin. The class given is in vivo. The settings on record: applied on skin once a day for 14 days; itching counted for 20 minutes; p<0.001; FIG. 3. The procedure:
On the skin of a 8-week old NC/Nga mouse, 100 mg of an ointment (AD Biostir, Japan) which contains components originating from house dust mite as an antigen causing allergic atopy were applied, total 6 times for 21 days with an interval of 3 to 4 days to induce allergic atopic dermatitis. Seven days after inducing allergic atopic dermatitis, the animal was applied with 1 mg/ml of the pharmaceutical (extract of gardenia fruit (GJE 1%), extract of gardenia fruit from which pigment is removed (GJE-CR 1%), or tacrolimus), once a day for 14 days. Thereafter, using the mouse with induced allergic dermatitis, number of itching for 20 minutes and level of skin damage on ear and back of the animal were examined once a week. All the measurement results are expressed in terms of mean and standard deviation (SD), and a difference among test groups was subjected to a statistical analysis using one-way ANOVA. Statistical significance was recognized when p is less than 0.05 (p<0.05).

The test system of assay [2] is inflammatory cells. Briefly: Change in inflammatory cell infiltration in ear and back skin tissues, H&E staining. It is filed as in vivo, NC/Nga mouse. The settings on record: skin tissues of back and ear; applied on skin; p<0.01 or p<0.001; FIG. 4. As for the experimental part:
(§1) On the skin of a 8-week old NC/Nga mouse, 100 mg of an ointment (AD Biostir, Japan) which contains components originating from house dust mite as an antigen causing allergic atopy were applied, total 6 times for 21 days with an interval of 3 to 4 days to induce allergic atopic dermatitis. Seven days after inducing allergic atopic dermatitis, the animal was applied with 1 mg/ml of the pharmaceutical (extract of gardenia fruit (GJE 1%), extract of gardenia fruit from which pigment is removed (GJE-CR 1%), or tacrolimus), once a day for 14 days. Skin tissues of the ear and back of a mouse with induced allergic dermatitis were collected and, by H&E (hematoxylin and eosin) staining and use of an image measuring program (Solution FL ver 9.1), a change in inflammatory cell infiltration was determined. All the measurement results are expressed in terms of mean and standard deviation (SD), and a difference among test groups was subjected to a statistical analysis using one-way ANOVA. Statistical significance was recognized when p is less than 0.05 (p<0.05).

In assay [3] the test system is mast cells. As to the kind of experiment: Number of mast cells in ear and back skin tissues, toluidine blue staining. It is filed as in vivo, NC/Nga mouse. The settings on record: applied on skin, p<0.01 or p<0.001, FIG. 5. As for the experimental part: as §1, with “toluidine blue (TB)” for “H&E (hematoxylin and eosin)”, “number of mast cells” for “a change in inflammatory cell infiltration”

The test system of assay [4] is NC/Nga mouse with induced allergic atopic dermatitis (house dust mite antigen). As to the kind of experiment: Number of itching in an animal model with allergic atopic dermatitis, extract orally administered. It is filed as in vivo. Particulars: oral 100 mg/kg or 200 mg/kg once a day for 14 days; itching counted for 20 minutes; p<0.05 to p<0.001; FIG. 6. As for the experimental part: On the skin of a 8-week old NC/Nga mouse, 100 mg of an ointment (AD Biostir, Japan) which contains components originating from house dust mite as an antigen causing allergic atopy were applied, total 6 times for 21 days with an interval of 3 to 4 days to induce allergic atopic dermatitis. On a day of starting the test, 150μl of 4% SDS were applied to the animal, and, after allowing it to stand for 1 hour, 100 mg of the house dust mite antigen were applied to back and both ears of the animal, respectively. Seven days after inducing allergic atopic dermatitis, the animal was orally administered with 100 mg/kg or 200 mg/kg of the pharmaceutical (extract of gardenia fruit or extract of gardenia fruit from which pigment is removed), once a day for 14 days.
Thereafter, using the animal model with induced allergic dermatitis, number of itching in the ear and back of the animal for 20 minutes was examined once a week to compare the effects obtained according to administration of a pharmaceutical. All the measurement results are expressed in terms of mean and standard deviation (SD), and a difference among test groups was subjected to a statistical analysis using one-way ANOVA. Statistical significance was recognized when p is less than 0.05 (p<0.05).

Consider two compounds from patent US12186356B2, “Composition for preventing, alleviating, or treating allergic skin disease comprising as active ingredient extract of gardenia fruit from which pigment is removed” (KOREA INSTITUTE OF ORIENTAL MEDICINE, priority 2018, dated 2025).

In the case of `C=CC[C@@H]1/C=C(\C)C[C@H](C)C[C@H](OC)[C@H]2O[C@@](O)(C(=O)C(=O)N3CCCC[C@H]3C(=O)O[C@H](/C(C)=C/[C@@H]3CC[C@@H](O)[C@H](OC)C3)[C@H](C)[C@@H](O)CC1=O)[C@H](C)C[C@@H]2OC` [tacrolimus], in assay [1], the “number of scratching (number of itching) compared to the control group (Control)” value is “decreased with statistical significance”. The “inflammatory cells compared to the control group (Control)” value in assay [2] was “decreased with statistical significance”. In assay [3], the “mast cells compared to the control group (Control)” value was “decreased with statistical significance”.
For the compound `C[C@]12C=CC(=O)C=C1CC[C@@H]1[C@@H]2[C@@H](O)C[C@@]2(C)[C@H]1CC[C@]2(O)C(=O)CO` [prednisolone], the “number of scratching (number of itching) over days compared to the control group (Control)” value in assay [4] was “decreased with statistical significance”.
